Source: article PMC10649008 (Antimicrobial Agents and Chemotherapy, 2023)
Several values for one entry are separate records, joined by “and”; a condition that tells them apart may be missing. Identical values can stand only once. Like-named read-outs stand apart in the source and are kept apart here.

How the values were obtained:
[1] = Healthy adults, N = 42, single 10 mg/kg IV dose, mean ± SD, cited from earlier work
[2] = five courses in three adolescent cystic fibrosis patients; 8.7–10 mg/kg daily for up to 3 weeks; cited from earlier work
[3] = post-dose, single 10 mg/kg IV
Description: (§1) Safety was monitored during both the screening and treatment periods by physical exams, vital signs, urinalysis, and clinical laboratory measures (complete blood count with differential, serum chemistry, creatinine, and liver enzymes); AEs and concomitant medications were recorded from screening through follow-up on Day 8 (± 1 day). Medical and medication history and demographics were collected at screening. Vital signs (heart rate, blood pressure, respiratory rate, and body temperature) were collected at screening, Days 1 and 2 of the study.

[4] = Single-dose plasma pharmacokinetics of telavancin in pediatric subjects (noncompartmental analysis); type: in vivo, human; conditions: single 10 mg/kg IV infusion over 60 min; for Tmax / Cmax / half-life: iv; for Tmax: median (minimum–maximum), read-out: T max (time at maximum concentration); for Cmax: read-out: C max (maximum plasma concentration); for half-life: read-out: T 1/2 (terminal elimination half-life) (converted)
Description: The drug was infused over 60 min on Day 1. Blood samples were collected at 1, 1.5, 2, 6, 12, and 24 h following the start of infusion for PK analysis.
Subjects with missing early PK samples were included in the PK population for plasma concentrations at each collected time point, but they were excluded from the PK modeling. […] The primary endpoints calculated from the plasma concentration-time data were maximum observed plasma concentration (C max), time to reach maximum plasma concentration (T max), area under the plasma concentration versus time curve from time 0 to the last sample with measurable analyte concentration (AUC0-last), area under the concentration versus time curve extrapolated to infinity (AUCinf), and terminal elimination half-life (T 1/2). CL and apparent steady-state volume of distribution (Vss) were also calculated from the plasma concentration-time data. PK parameters were calculated using noncompartmental analysis with Phoenix WinNonlin v8.1 (Certara, Princeton, NJ, USA).
For calculation of mean concentrations at each time point and generation for mean concentration versus time profiles, all values below the limit of quantification (BLQ) were set to 0. […] For the NCA, actual infusion durations and actual sampling times were used. Infusion duration was calculated as the difference between the start of infusion time and the end of infusion time. Actual sampling times were calculated as the difference between the start of infusion time and the sampling time.
For PK analysis and individual concentration versus time plots, a concentration that was BLQ was assigned a value of 0, if it occurred in a profile before the first measurable concentration and was set to missing thereafter, if two BLQ values occurred in succession after C max, the profile was deemed to have terminated at the first BLQ value, and any subsequent concentrations were omitted from PK calculations.

[5] = From the text: All study procedures were reviewed and approved by the respective Institutional Review Board for each study site. Prior to any study procedures, written informed consent from a parent or legal guardian and assent (if appropriate for older patients) were obtained. The patient population consisted of subjects aged >12 months to <17 years of age who required systemic antibiotic therapy for the treatment or prevention of known or suspected bacterial infection. Subjects were enrolled into four cohorts stratified by age: adolescents (12–17 years of age), older children (6–11 years of age), younger children (2–5 years of age), and infants (1–2 years of age). […] The study consisted of a screening period followed by a treatment period and a safety follow-up period through Day 8 ± 1 day.
as §1

[6] = Cohort 2 (6–11 years), N = 6, plasma, noncompartmental, mean ± SD
[7] = Cohort 3 (2–5 years), N = 1, plasma, noncompartmental
[8] = human, in vivo, 10 mg/kg, Cohort 1 (12–17 years), N = 13, plasma, mean ± SD
[9] = human, in vivo, 10 mg/kg, Cohort 2 (6–11 years), N = 6, plasma, mean ± SD
[10] = Cohort 1 (12–17 years), of 16 AEs, single 10 mg/kg IV
[11] = Cohort 2 (6–11 years), of 11 AEs, single 10 mg/kg IV
[12] = all cohorts, three of 22 subjects, single 10 mg/kg IV
[13] = all cohorts, two of 22 subjects, single 10 mg/kg IV

## CCCCCCCCCCNCCN[C@@]1(C)C[C@H](O[C@H]2[C@H](Oc3c4cc5cc3Oc3ccc(cc3Cl)[C@@H](O)[C@@H](NC(=O)[C@@H](CC(C)C)NC)C(=O)N[C@@H](CC(N)=O)C(=O)N[C@H]5C(=O)N[C@H]3C(=O)N[C@H](C(=O)N[C@H](C(=O)O)c5cc(O)c(CNCP(=O)(O)O)c(O)c5-c5cc3ccc5O)[C@H](O)c3ccc(c(Cl)c3)O4)O[C@H](CO)[C@@H](O)[C@@H]2O)O[C@@H](C)[C@H]1O [telavancin]
[1]; 10 mg/kg
  AUC0-inf (area under the curve extrapolated to infinity): 747 µg·h/mL and 747 ± 129 µg·h/mL
  T 1/2 (terminal elimination half-life): 8.0 h and 8.0 ± 1.5 h
[1]
  C max (maximum plasma concentration): 93.6 ± 14.2 µg/mL
  CL (clearance): 0.232 ± 0.0483 mL/min/kg
[2]
  Serum creatinine across courses of treatment: remained stable
[3]; Cohort 1 (12 to 17 years), 9 subjects, pre-dose 0.6 ± 0.2 (N = 14)
  Creatinine: 1.0 ± 1.1 mg/dL
[3]; Cohort 1 (12 to 17 years), 9 subjects, pre-dose 0.6 ± 0.3 (N = 14)
  Total bilirubin: 0.3 ± 0.2 mg/dL
[3]; Cohort 1 (12 to 17 years), 9 subjects, pre-dose 10.3 ± 3.1 (N = 14)
  Leukocytes: 7.3 ± 2.0 x10^9/L
[3]; Cohort 1 (12 to 17 years), 9 subjects, pre-dose 12.2 ± 1.7 (N = 14)
  Hemoglobin: 12.1 ± 1.4 g/dL
[3]; Cohort 1 (12 to 17 years), 9 subjects, pre-dose 25.9 ± 15.1 (N = 14)
  Alanine aminotransferase: 37.4 ± 24.2 IU/L
[3]; Cohort 1 (12 to 17 years), 9 subjects, pre-dose 50.9 ± 56.2 (N = 14)
  Aspartate aminotransferase: 72.8 ± 72.0 IU/L
[3]; Cohort 1 (12 to 17 years), 9 subjects, pre-dose 226 ± 69.1 (N = 14)
  Platelets: 236 ± 85.9 x10^9/L
[3]; Cohort 1 (12 to 17 years), 9 subjects, pre-dose 361 ± 247 (N = 14)
  Lactate dehydrogenase: 439 ± 270 IU/L
[3]; Cohort 2 (6 to 11 years), 6 subjects, pre-dose 0.4± 0.1 (N = 7)
  Creatinine: 0.4 ± 0.1 mg/dL
[3]; Cohort 2 (6 to 11 years), 6 subjects, pre-dose 0.6 ± 0.5 (N = 7)
  Total bilirubin: 0.5 ± 0.3 mg/dL
[3]; Cohort 2 (6 to 11 years), 6 subjects, pre-dose 8.3 ± 3.0 (N = 7)
  Leukocytes: 6.3 ± 1.3 x10^9/L
[3]; Cohort 2 (6 to 11 years), 6 subjects, pre-dose 11.7 ± 1.4 (N = 7)
  Hemoglobin: 11.9 ± 1.4 g/dL
[3]; Cohort 2 (6 to 11 years), 6 subjects, pre-dose 30.9 ± 12.2 (N = 7)
  Alanine aminotransferase: 36.8 ± 19.4 IU/L
[3]; Cohort 2 (6 to 11 years), 6 subjects, pre-dose 41.6 ± 26.0 (N = 7)
  Aspartate aminotransferase: 46.7 ± 40.7 IU/L
[3]; Cohort 2 (6 to 11 years), 6 subjects, pre-dose 267 ± 73.6 (N = 7)
  Platelets: 289 ± 105.5 x10^9/L
[3]; Cohort 3 (2 to 5 years), N = 1, pre-dose 0.2 ± 0.0
  Creatinine: 0.2 ± 0.0 mg/dL
[3]; Cohort 3 (2 to 5 years), N = 1, pre-dose 0.4 ± 0.0
  Total bilirubin: 0.4 ± 0.0 mg/dL
[3]; Cohort 3 (2 to 5 years), N = 1, pre-dose 4.6 ± 0.0
  Leukocytes: 7.5 ± 0.0 x10^9/L
[3]; Cohort 3 (2 to 5 years), N = 1, pre-dose 10.0 ± 0.0
  Hemoglobin: 10.3 ± 0.0 g/dL
[3]; Cohort 3 (2 to 5 years), N = 1, pre-dose 41.0 ± 0.0
  Aspartate aminotransferase: 37.0 ± 0.0 IU/L
[3]; Cohort 3 (2 to 5 years), N = 1, pre-dose 72.0 ± 0.0
  Alanine aminotransferase: 62.0 ± 0.0 IU/L
[3]; Cohort 3 (2 to 5 years), N = 1, pre-dose 148 ± 0.0
  Platelets: 195 ± 0.0 x10^9/L
[3]; Cohort 3 (2 to 5 years), N = 1, pre-dose 477 ± 0.0
  Lactate dehydrogenase: 480 ± 0.0 IU/L
[4]; Cohort 1 (12–17 years), N = 13–14, nominal time 1 h after start of infusion, mean ± SD
  Mean plasma telavancin concentration: 58.1 ± 8.38
[4]; Cohort 1 (12–17 years), N = 13–14, nominal time 1.5 h, mean ± SD
  Mean plasma telavancin concentration: 46.2 ± 7.01
[4]; Cohort 1 (12–17 years), N = 13–14, nominal time 2 h, mean ± SD
  Mean plasma telavancin concentration: 37.4 ± 5.26
[4]; Cohort 1 (12–17 years), N = 13–14, nominal time 6 h, mean ± SD
  Mean plasma telavancin concentration: 19.8 ± 3.58
[4]; Cohort 1 (12–17 years), N = 13–14, nominal time 12 h, mean ± SD
  Mean plasma telavancin concentration: 8.84 ± 3.51
[4]; Cohort 1 (12–17 years), N = 13–14, nominal time 24 h, mean ± SD
  Mean plasma telavancin concentration: 2.14 ± 0.922
[4]; Cohort 2 (6–11 years), N = 6, mean ± SD
  CL (clearance): 0.5 ± 0.135 mL/min/kg
[4]; [6]
  AUC0-inf (area under the curve extrapolated to infinity): 351 ± 79.7 µg·h/mL
  AUC0-last (area under the curve from time zero until the last PK sample): 333 ± 74.2 µg·h/mL
[4]; Cohort 2 (6–11 years), N = 6–7, nominal time 1 h after start of infusion, mean ± SD
  Mean plasma telavancin concentration: 60.1 ± 11.9
[4]; Cohort 2 (6–11 years), N = 6–7, nominal time 1.5 h, mean ± SD
  Mean plasma telavancin concentration: 48.4 ± 8.66
[4]; Cohort 2 (6–11 years), N = 6–7, nominal time 2 h, mean ± SD
  Mean plasma telavancin concentration: 41.9 ± 7.65
[4]; Cohort 2 (6–11 years), N = 6–7, nominal time 6 h, mean ± SD
  Mean plasma telavancin concentration: 20.7 ± 3.64
[4]; Cohort 2 (6–11 years), N = 6–7, nominal time 12 h, mean ± SD
  Mean plasma telavancin concentration: 9.20 ± 2.50
[4]; Cohort 2 (6–11 years), N = 6–7, nominal time 24 h, mean ± SD
  Mean plasma telavancin concentration: 2.08 ± 1.23
[4]; Cohort 3 (2–5 years), N = 1
  CL (clearance): 0.728 mL/min/kg
  T max (time at maximum concentration): 1.18 h
[4]; Cohort 3 (2–5 years), N = 1, nominal time 1 h after start of infusion
  Mean plasma telavancin concentration: 53.1
[4]; Cohort 3 (2–5 years), N = 1, nominal time 1.5 h
  Mean plasma telavancin concentration: 45.0
[4]; Cohort 3 (2–5 years), N = 1, nominal time 2 h
  Mean plasma telavancin concentration: 37.3
[4]; Cohort 3 (2–5 years), N = 1, nominal time 6 h
  Mean plasma telavancin concentration: 18.0
[4]; Cohort 3 (2–5 years), N = 1, nominal time 12 h
  Mean plasma telavancin concentration: 2.67
[4]; Cohort 3 (2–5 years), N = 1, nominal time 24 h
  Mean plasma telavancin concentration: 0.146
[4]; Cohort 3 (2–5 years), N = 1, plasma
  C max (maximum plasma concentration): 53.1 µg/mL
[4]; Cohort 3 (2–5 years), N = 1, plasma, 10 mg/kg
  T 1/2 (terminal elimination half-life): 2.73 h
[4]; [7]
  AUC0-inf (area under the curve extrapolated to infinity): 229 µg·h/mL
  AUC0-last (area under the curve from time zero until the last PK sample): 228 µg·h/mL
[4]; human, in vivo, 10 mg/kg, Cohort 1 (12–17 years), N = 13
  Tmax: 1.02 h
[4]; [8]
  Cmax: 58.3 ± 8.4 µg/mL
  half-life: 5.6 ± 1.01 h
[4]; human, in vivo, 10 mg/kg, Cohort 2 (6–11 years), N = 6
  Tmax: 1.09 h
[4]; [9]
  Cmax: 60.1 ± 11.9 µg/mL
  half-life: 5.19 ± 0.751 h
[4]; human, in vivo, Cohort 1 (12–17 years), N = 13, mean ± SD, read-out: CL (clearance) (converted)
  clearance: 0.497 mL/min/kg
[4]; human, in vivo, Cohort 1 (12–17 years), N = 13, plasma, noncompartmental, mean ± SD, read-out: AUC0-inf (area under the curve extrapolated to infinity)
  AUC(0-inf): 345 ± 58.5 µg·h/mL
[4]; human, in vivo, Cohort 1 (12–17 years), N = 13, plasma, noncompartmental, mean ± SD, read-out: AUC0-last (area under the curve from time zero until the last PK sample)
  AUC(0-t): 326 ± 50 µg·h/mL
[5]; Cohort 1 (12–17 years), N = 14, across six patients, single 10 mg/kg IV
  Number of adverse events: 16
[5]; Cohort 1 (12–17 years), fifteen of the 16 events
  Adverse events deemed probably related to telavancin administration: 94%
[5]; [10]
  Number of adverse events mild in severity: 13
  Number of adverse events moderate in severity: 3
[5]; Cohort 2 (6–11 years), N = 7, across four patients, single 10 mg/kg IV
  Number of adverse events: 11
[5]; [11]
  Number of adverse events mild in severity: nine
  Number of adverse events moderate in severity: two
[5]; Cohort 2 (6–11 years), six of the 11 events
  Adverse events considered probably related to telavancin administration: 55%
[5]; Cohort 3 (2–5 years), single subject, single 10 mg/kg IV
  Adverse events: No AEs were reported
[5]; all cohorts, 10 of the 22 subjects, single 10 mg/kg IV, through Day 8 ± 1
  Subjects with adverse events: 45%
[5]; all cohorts, 22 subjects 2–17 years, single 10 mg/kg IV, through Day 8 ± 1
  Total number of adverse events (AEs): 27
[5]; all cohorts, 22 subjects, single 10 mg/kg IV
  Serious adverse events: no serious AEs
[5]; all cohorts, four of 22 subjects, single 10 mg/kg IV
  Subjects with nausea: 18%
[5]; [12]
  Subjects with foamy urine: 14%
  Subjects with taste disturbance/metallic taste: 14%
[5]; [13]
  Subjects with dizziness: 9%
  Subjects with headache: 9%
[5]; all pediatric age cohorts, single 10 mg/kg IV
  Tolerability of a single dose: well-tolerated
[5]; one subject in Cohort 2 (6–11 years), ECG 1.5–2.5 h after start of infusion, moderate, resolved prior to Day 8
  QT interval (12-lead ECG): prolonged QT interval
[5]; single 10 mg/kg infusion administered over an hour, all cohorts
  Infusion reactions: no infusion reactions
[5]; worsened ALT and LDH in one Cohort 1 subject, prolonged QT in one Cohort 2 subject, moderate, resolved prior to Day 8
  Clinically significant abnormalities following telavancin administration: three
